Experimental data from ChEMBL document CHEMBL5724558, “Image-based profiling of drug vulnerabilities in CRC organoids” (2024).
“And” between values parts separate entries of the source, which are not always exact repeats. Equal values may be shown once.

Key:
Format in all cases: functional, Homo sapiens
Design in all cases: dose or concentration left out as unconfirmed
[1] = tested on: Colon cancer organoid; test: Image-based profiling of donated chemical probes and chemogenomic kinase set in O06 CRC organoid. Image analysis is performed on the sum area metric, and the data were normalized to the DMSO control. After imaging the organoid viability is measured using the OneGloEX Luciferase Assay System. The normalized viability data and sum area are reported.
[2] = tested on: Colon cancer organoid; test: Image-based profiling of donated chemical probes and chemogenomic kinase set in O09 CRC organoid. Image analysis is performed on the sum area metric, and the data were normalized to the DMSO control. After imaging the organoid viability is measured using the OneGloEX Luciferase Assay System. The normalized viability data and sum area are reported.
[3] = tested on: Colon cancer organoid; test: Image-based profiling of donated chemical probes and chemogenomic kinase set in O21 CRC organoid. Image analysis is performed on the sum area metric, and the data were normalized to the DMSO control. After imaging the organoid viability is measured using the OneGloEX Luciferase Assay System. The normalized viability data and sum area are reported.

Structure (SMILES)	Cell Viability ([1]; Replication number 1)	Cell Viability ([1]; Replication number 2)	Cell Viability ([2]; Replication number 1)	Cell Viability ([2]; Replication number 2)	Cell Viability ([3]; Replication number 1)	Cell Viability ([3]; Replication number 2)
CC1=C(C)C(=O)C(C(C)(C)CC(=O)N(CCCCSC[C@H]2O[C@@H](n3cnc4c(N)ncnc43)[C@@H]3OC(C)(C)O[C@@H]32)Cc2cccc(-c3ccc(Cl)cc3)c2)=C(C)C1=O	141.238% and 103.893%	153.713% and 129.049%	93.185% and 86.476%	68.1346% and 85.8093%	97.336% and 122.861%	82.8638% and 97.7327%
COc1ncc(-c2ccc3nccc(-c4ccnnc4)c3c2)cc1NS(=O)(=O)c1ccc(F)cc1F [OMIPALISIB]	2.947% and 9.014%	1.718% and 5.799%	14.1746% and 4.189%	12.1613% and 4.9671%	14.5309% and 34.1185%	–
COc1cc2c(cc1NS(=O)(=O)c1ccc(Br)cc1C)n(C)c(=O)n2C	85.4589% and 143.275%	107.386% and 104.912%	82.8669% and 66.0742%	161.71% and 111.182%	90.5613% and 147.551%	87.5695% and 113.305%
Cc1c(NC(=O)c2cc(C(N)=O)nc3cc(F)ccc23)c(C(F)(F)F)nn1Cc1ccc(C#N)cc1 [BAY-876]	10.662% and 26.9321%	13.3809% and 14.2138%	36.4456% and 33.4484%	36.255% and 13.5816%	21.7392% and 19.9094%	22.1552% and 34.1837%
CC1(C)C(N)=Nc2cc(OCCCN3Cc4ccc(OCCc5cn(CC(=O)N6CCC(CCN7CCCC7)CC6)nn5)cc4C3)c(OCC3CC3)cc21	159.496% and 131.919%	138.652% and 115.905%	116.392% and 79.0572%	168.88% and 116.313%	89.3796% and 92.2926%	86.2982% and 98.2697%
CN(C)C(=O)c1sc2nc(N3CCC(S(C)(=O)=O)CC3)cc(C(F)(F)F)c2c1N [BI-5026]	118.242% and 106.64%	81.5646% and 70.3988%	136.068% and 99.7874%	102.802% and 111.221%	97.3% and 81.8479%	110.845% and 100.952%
CCCCN(Cc1ccccc1)C(=O)c1ccc(S(=O)(=O)Nc2ccccc2)cc1	128.543% and 118.777%	114.906% and 147.848%	116.29% and 115.073%	99.5038% and 96.018%	85.4191% and 92.3751%	113.731% and 107.676%
CCC(=N\O)/C(C)=C/c1ccc(F)c(C)c1 [A-226]	97.0228% and 105.855%	79.4149% and 80.7818%	100.912% and 93.6554%	132.086% and 110.405%	109.207% and 89.6507%	103.65% and 86.2245%
CCS(=O)(=O)c1cc2cc(C[C@](O)(CC(C)(C)c3ccc(F)cc3C(N)=O)C(F)(F)F)[nH]c2cn1 [BI 653048]	90.5623% and 97.4239%	82.9692% and 113.237%	139.667% and 102.973%	122.797% and 92.0044%	95.8907% and 94.89%	87.1647% and 83.1633%
CCOc1cc2ncc(C#N)c(Nc3ccc(OCc4cccc(F)c4)c(Cl)c3)c2cc1NC(=O)/C=C/CN(C)C [HKI-357]	2.387% and 8.346%	3.908% and 9.337%	14.2588% and 15.3343%	12.8508% and 14.4694%	27.4097% and 41.0314%	48.8208% and 68.5139%
Cc1noc(C)c1-c1cnc2c(-c3ccc(C(=O)O)cc3)cn([C@@H](C)c3ccccn3)c2c1 [PLX-51107]	28.5018% and 57.9866%	31.105% and 59.0281%	42.9449% and 37.558%	38.2971% and 35.6351%	101.544% and 130.503%	74.8766% and 126.73%
CC(C)(C)c1cc(NC(=O)Nc2ccc(-c3cn4c(n3)sc3cc(OCCN5CCOCC5)ccc34)cc2)no1 [QUIZARTINIB]	39.693% and 48.7411%	34.5672% and 63.5476%	85.316% and 55.6023%	92.2589% and 77.476%	67.5016% and 73.0314%	71.418% and 77.7258%
Cc1cnc(-c2cc(Cl)ccc2F)cc1-n1c(=O)n(CC(N)=O)c2cnccc21 [TP-008]	69.5011% and 111.741%	79.5252% and 108.842%	46.9462% and 85.5321%	76.2638% and 97.3434%	94.8191% and 94.398%	86.5351% and 93.3039%
CN(C)CCCOc1ccc(-c2cc(NCCCn3cccn3)nc(S(C)(=O)=O)n2)cc1	164.335% and 134.819%	201.31% and 140.998%	107.413% and 76.7388%	121.884% and 89.5154%	93.735% and 87.002%	96.544% and 91.8258%
CC1(C)C(N)=Nc2cc(OCCCCN3Cc4ccc(OCc5cn(CC(=O)N6CCC(CCN7CCCC7)CC6)nn5)cc4C3)c(OCC3CC3)cc21	120.738% and 74.8993%	69.8334% and 85.077%	129.867% and 99.2272%	184.968% and 121.159%	75.5552% and 109.928%	77.1471% and 105.251%
CN(C)C(=O)N1CC[C@H](NC2=Nc3cc(F)ccc3N(CC(F)F)c3ccc(Cl)cc32)C1	112.42% and 113.793%	60.2365% and 60.6343%	91.7013% and 91.0686%	138.489% and 113.836%	101.162% and 105.976%	96.6139% and 109.943%
Nc1nc(NCc2ccccc2)nc(-c2cccc(CO)c2)n1 [ZINC32547799]	89.5578% and 102.51%	72.3824% and 71.8405%	98.3992% and 98.4744%	101.098% and 100.714%	95.0079% and 87.3045%	101.984% and 101.971%
CC(=O)N1CCC(c2ccc(C(=O)NC(=N)N)cc2C(F)(F)F)CC1 [BI 9627]	92.5077% and 96.2529%	95.2505% and 62.3038%	138.648% and 103.929%	116.481% and 107.777%	89.2518% and 118.176%	98.5958% and 100.51%
CN1CCN(c2cnc3c(C4CCN(C(=O)c5ccc(OC(F)(F)F)cc5N)CC4)ncnc3c2)CC1 [BAY-885]	84.7491% and 99.8381%	93.9717% and 91.062%	40.0205% and 84.5942%	66.5359% and 88.2236%	131.298% and 119.498%	99.2561% and 98.9123%
Cc1c(N2CCNCC2)nc2ccc(Br)cc2c1C(=O)NC[C@H](CCC(=O)O)c1ccccc1Cl [BAY-403]	84.3877% and 124.372%	102.985% and 123.739%	84.5203% and 109.166%	120.857% and 102.102%	86.0908% and 103.128%	96.6508% and 95.8532%
Cc1ccc(NC(=O)Nc2cc(C(F)(F)F)ccc2F)cc1Nc1ccc2c(c1)NC(=O)/C2=C\c1ccc[nH]1	171.109% and 157.262%	144.83% and 120.438%	128.92% and 93.5433%	146.444% and 106.907%	103.098% and 128.078%	94.098% and 129.212%
